# Source: patent publication US6696440B1, “Treatment of asthma with MEK inhibitors” (Warner-Lambert Company, priority 1999, dated 2004)
# Marks after values point to notes of the source that are not given here.
# Experiments:
# [1] = tested on: BAL eosinophils; assay: Active OVA-induced eosinophilic lung inflammation in mice, oral dosing; assay type: in vivo; conditions: for % Inhibition of BAL Eosinophils / % Inhibition of BAL Eosinophilia: oral; for % Inhibition of BAL Eosinophilia: 4 days (Day 13 to Day 16); for activity against BAL eosinophils (in words): multiple doses, dosing for 4 days (Table 4); for inhibitory activity against BAL eosinophils (in words): oral dosing schedule of 9 days (Table 5)
# Procedure: (§1) For each of these assays, female C57BL/6 mice obtained from the Jackson Laboratory (Bar Harbor, Me.) were given an intraperitoneal (i.p.) injection of ovalbumin (OVA, Grade V, Sigma Chemical Company, St. Louis, Mo.) adsorbed to aluminum hydroxide (10 μg OVA+9 mg aluminum hydroxide in 200 μL saline). This sensitizes OVA-specific lymphocytes for subsequent restimulation either in vivo or in vitro.
# The final set of experiments was designed to test whether MEK inhibitors could inhibit active OVA-induced eosinophilic lung inflammation in mice. Mice were sensitized with OVA/aluminum hydroxide on Day 0 as described above. On Day 14, the mice were challenged by aerosol with 1.5% OVA, as described above for the adoptive-transfer recipients. One group of eight sensitized mice was dosed orally with vehicle (0.5% hydroxypropylmethylcellulose/0.25% TWEEN-80). Other groups of sensitized mice (8 mice per group) were given oral doses of a MEK inhibitor. The test compound was dissolved in the vehicle, and the volume for each dosage was adjusted to 200 μL, so that each test animal received the same oral volume. In experiments reported in Table 3 and Table 4, the MEK inhibitor was administered starting on Day 13 (ie, 13 days after initial sensitization and 1 day prior to aerosol challenge), and continued daily through Day 16 (4 days total). In experiments reported in Table 5, the MEK inhibitor was administered starting on Day 7 (ie, 7 days after initial sensitization and 7 days prior to aerosol challenge), and continued daily through […]. On Day 17 of each experiment (17 days following the initial OVA challenge, and 3 days after the OVA aerosol challenge), all animals including controls were anesthetized, cannulated, and lavaged as previously described. The number of BAL eosinophils was determined as described above.
# [2] = tested on: BAL eosinophils; assay: Adoptive (passive) transfer of eosinophilic lung inflammation by MEK inhibitor-treated splenocytes; assay type: in vivo; conditions: spleen cell culture treated with 10 μM compound; cells transferred to naive mice; OVA aerosol challenge
# Procedure: as §1
# When OVA-sensitized spleen cells are restimulated with OVA in vitro for 3 days, as described above, the spleen cells not only produce IL-5, but also acquire the ability to induce eosinophilic lung inflammation when transferred into naive recipient mice. The critical cell type responsible for this adoptively-transferred activity is thought to be IL-5-producing T lymphocytes. […] Splenocytes from OVA restimulation cultures, with or without the addition of MEK inhibitors were harvested after 3 days of culture, washed three times, and resuspended at 1×10^8 cells/mL in sterile saline. Groups of five naive (unsensitized) […] mice were injected i.p. with 200 μL of the cell suspension (2×10^7 cells). Three days after transfer of cells, the recipient mice were challenged with a 12-minute inhalation of an aerosol formulation of 1.5% OVA in saline (weight/volume), the mist being produced by a nebulizer (small particle generator model SPAG-2, ICN Pharmaceuticals, Costa Mesa, Calif.). Three days after aerosol challenge, the mice were anesthetized with an i.p. injection of an anesthetic mixture comprising Ketamine, acepromazine, and xylazine. The trachea of each mouse was exposed and cannulated. The lungs and upper airways were lavaged with 0.5 mL of cold (5° C.) phosphate buffered saline (PBS). The cells within a 200 μL portion of the bronchoalveolar lavage (BAL) fluid were enumerated using a Coulter counter (Model ZB 1, Coulter Electronics, Hialeah, Fla.). […] The number of eosinophils in the BAL fluid was determined by multiplying the percentage of eosinophils by the total cell count.
# [3] = tested on: OVA-primed splenocytes; assay: Inhibition of antigen-induced IL-5 production by OVA-primed splenocytes in vitro; assay type: cell-based, mice; conditions: Mus musculus, Splenocyte, 72 h; OVA-sensitized splenocytes cultured 3 days with 200 μg/mL OVA; IL-5 by ELISA
# Procedure: as §1
# The first set of experiments was designed to determine whether the MEK inhibitors could prevent antigen-induced production of IL-5 by the OVA-primed splenocytes in vitro. IL-5 is required for the differentiation, migration, and survival of pulmonary eosinophils, which are thought to be responsible for much of the pathology associated with human asthma. In order to examine the effects of MEK inhibitors on IL-5 production, OVA-sensitized mice were sacrificed by cervical dislocation 14 days after sensitization (Day 14), the spleens were excised and disaggregated, and the erythrocytes were lysed. The splenocytes were washed and resuspended at […] in complete medium consisting of RPMI 1640 (Gibco BRL, Gaithersburg, Md.) with 10% heat-inactivated fetal calf serum (Hyclone, Logan, Utah), 55 μM 2-mercaptoethanol, 50 U/mL penicillin G, 50 μg/mL streptomycin sulfate, and 2 mM L-glutamine (Gibco BRL). The splenocytes were then cultured at 37° C. in the presence of 200 μg/mL OVA. MEK inhibitors were also added to the cultures from sterile 10 mM stock solutions (in DMSO). After 3 days, the culture medium was recovered and assayed for IL-5 by specific ELISA.
# [4] = 4-day compound dosing, 10 mg/kg
# [5] = 4-day compound dosing, 30 mg/kg
# [6] = 4-day compound dosing, 100 mg/kg
smiles,measurement,setting,value
"O=C(NOCC1CC1)c1ccc(F)c(F)c1Nc1ccc(I)cc1Cl [PD 184352, 2-(2-Chloro-4-iodophenylamino)-N-cyclopropylmethoxy-3,4-difluorobenzamide]",% Inhibition of BAL Eosinophils,[1]; [4],−22.7%
same,% Inhibition of BAL Eosinophils,[1]; [5],−153.8%
same,% Inhibition of BAL Eosinophils,[1]; [6],−8.2%
same,% Inhibition of BAL Eosinophils,"[1]; 9-day compound dosing, 10 mg/kg",−42.99%
same,% Inhibition of BAL Eosinophils,"[1]; 9-day compound dosing, 30 mg/kg",1.83%
same,% Inhibition of BAL Eosinophils,"[1]; 9-day compound dosing, 100 mg/kg",59.85%
same,% Inhibition of BAL Eosinophilia,[1]; Dose 150,−5.41%
same,activity against BAL eosinophils (in words),[1],does not
same,inhibitory activity against BAL eosinophils (in words),[1],shown to inhibit the asthma-like response in mice
same,% Inhibition of BAL Eosinophils,[2],99.46%
same,IC50,[3],1620 nM
"Cc1cc(I)ccc1Nc1ccccc1C(=O)O [Example 19, 2-(4-Iodo-2-methyl-phenylamino)-benzoic acid]",melting point,,218 to 223 °C
"Cc1cc(I)ccc1Nc1cc(F)ccc1C(=O)O [Example 1, 4-Fluoro-2-(4-iodo-2-methylphenylamino)benzoic Acid]",melting point,,224 to 229.5 °C
"Cc1cc(I)ccc1Nc1c(C(=O)NOCC2CC2)cc(Br)c(F)c1F [PD 177168, 2-(2-Methyl-4-iodophenylamino)-N-cyclopropylmethoxy-3,4-difluoro-5-bromobenzamide]",% Inhibition of BAL Eosinophilia,[1]; Dose 100,−23.38%
same,IC50,[3],1200 nM
"Cc1cc(I)ccc1Nc1ccccc1-c1nnn[nH]1 [Example 208, (4-iodo-2-methyl-phenyl)-[2-(1H-tetrazol-5-yl)-phenyl]amine]",melting point,,231 °C (dec.)
"O=C(NOCC1CC1)c1cc(Br)c(F)c(F)c1Nc1ccc(I)cc1Cl [PD 184161, 2-(2-Chloro-4-iodophenylamino)-N-cyclopropylmethoxy-3,4-difluoro-5-bromobenzamide]",% Inhibition of BAL Eosinophilia,[1]; Dose 100,−32.53%
same,IC50,[3],1150 nM
"COc1cccc(-c2cc(=O)c3ccccc3o2)c1N [PD 098059, 2-(2-amino-3-methoxyphenyl)-4-oxo-4H-[1]benzopyran, reference compound]",IC50,[3],17400 nM
"COc1ccc(Nc2ccc(I)cc2)c(C(=O)O)c1 [Example 24, 2-(4-Iodo-phenylamino)-5-methoxy-benzoic acid]",melting point,,208 to 211 °C
"Cc1cc(I)ccc1Nc1cc(F)ccc1C(=O)NO [PD 170611, 2-(2-Methyl-4-iodophenylamino)-N-hydroxy-4-fluorobenzamide]",IC50,[3],1120 nM
same,melting point,,61 to 75 °C
"O=C(NO)c1cc(Br)c(F)c(F)c1Nc1ccc(I)cc1Cl [PD 184386, 2-(2-Chloro-4-iodophenylamino)-N-hydroxy-3,4-difluoro-5-bromobenzamide]",% Inhibition of BAL Eosinophilia,[1]; Dose 100,−33.24%
same,% Inhibition of BAL Eosinophils,[2],99.78%
same,IC50,[3],23 nM
"Cc1cc(I)ccc1Nc1c(C(=O)NO)cc(Br)c(F)c1F [PD 171984, 2-(2-Methyl-4-iodophenylamino)-N-hydroxy-3,4-difluoro-5-bromobenzamide]",% Inhibition of BAL Eosinophils,[1]; [4],38.4* %
same,% Inhibition of BAL Eosinophils,[1]; [5],46.6* %
same,% Inhibition of BAL Eosinophils,[1]; [6],58.4* %
same,% Inhibition of BAL Eosinophils,"[1]; 9-day compound dosing, 10 mg/kg, Experiment 1",−13.74%
same,% Inhibition of BAL Eosinophils,"[1]; 9-day compound dosing, 10 mg/kg, Experiment 2",50.15* %
same,% Inhibition of BAL Eosinophils,"[1]; 9-day compound dosing, 30 mg/kg, Experiment 1",80.64* %
same,% Inhibition of BAL Eosinophils,"[1]; 9-day compound dosing, 30 mg/kg, Experiment 2",37.23* %
same,% Inhibition of BAL Eosinophils,"[1]; 9-day compound dosing, 100 mg/kg, Experiment 1",88.40* %
same,% Inhibition of BAL Eosinophils,"[1]; 9-day compound dosing, 100 mg/kg, Experiment 2",54.77* %
same,% Inhibition of BAL Eosinophilia,[1]; Dose 100,55.26* %
same,inhibition of pulmonary eosinophilia (in words),"[1]; initial analysis, dosed orally for 4 days (Table 3)",demonstrated any inhibition of pulmonary eosinophilia
same,activity against BAL eosinophils (in words),[1],appears active
same,inhibitory activity against BAL eosinophils (in words),[1],statistically significant inhibitory activity
same,% Inhibition of BAL Eosinophils,[2],99.82%
same,IC50,[3],117 nM
same,melting point,,80 to 90 °C
